Structures can show the parent of a compound that is named as a salt. Non-standard residues stand in square brackets, D forms with d. Residues, ends and D or L forms follow the SMILES beside them. pGlu = O=C1CC[C@@H](C(=O)O)N1; Thz = O=C(O)[C@@H]1CSCN1
assay: in vitro; details: rat, gh3-tre-luc cells, AC50 (uM) modified / 1000

SMILES | CC50 at 24 h [µM]
CC(=O)OCC(=O)[C@@]1(O)[C@H](C)C[C@H]2[C@@H]3C[C@H](F)C4=CC(=O)C=C[C@]4(C)[C@H]3[C@@H](O)C[C@@]21C [Paramethasone acetate] | > 50
C[C@H]1O[C@@H](O[C@H]2CC[C@@]3(C)[C@H](CC[C@@H]4[C@@H]3C[C@@H](O)[C@]3(C)[C@@H](C5=CC(=O)OC5)CC[C@]43O)C2)C[C@H](O)[C@@H]1O[C@H]1C[C@H](O)[C@H](O[C@H]2C[C@H](O)[C@H](O[C@@H]3O[C@H](CO)[C@@H](O)[C@H](O)[C@H]3O)[C@@H](C)O2)[C@@H](C)O1 [Deslanoside] | > 50
CC(=O)/N=c1/sc(S(N)(=O)=O)nn1C [Methazolamide] | > 20
COC(=O)[C@H]1CC[C@H](C(=O)OC)CC1 [Dimethyl trans-cyclohexane-1,4-dicarboxylate] | > 90
CC(C)Oc1ccc2c(=O)c(-c3ccccc3)coc2c1 [Ipriflavone] | > 50
NS(=O)(=O)c1cc(C(=O)O)cc(N2CCCC2)c1Oc1ccccc1 [Piretanide] | > 20
Brc1ccccc1 [Bromobenzene] | > 90
CCc1cccc2c3c([nH]c12)C(CC)(CC(=O)O)OCC3 (centres unmarked) [Etodolac] | > 90
Cc1ncsc1CCO [Thiamine thiozole] | > 90
CC1CCc2nccnc21 (centres unmarked) [5H-5-Methyl-6,7-dihydrocyclopenta[b]pyrazine] | > 90
O=C(O)c1c2ccccc2cc2ccccc12 [9-Anthracenecarboxylic acid] | > 90
CCC(=O)OCCOc1ccccc1 [Phenoxyethyl propionate] | > 90
O=[N+]([O-])c1cc(Cl)c(Cl)c(Cl)c1 [3,4,5-Trichloronitrobenzene] | > 90
O=C(O)c1ccc2cc(C(=O)O)ccc2c1 [2,6-Naphthalenedicarboxylic acid] | > 90
CCCC[P+](C)(CCCC)CCCC [Tributylmethylphosphonium methyl sulfate] | > 90
COC(=O)Nc1ccc(Cl)c(Cl)c1 [Swep] | > 90
COc1cc(C(=O)OC(COCCC(C)C)CN2CCOCC2)cc(OC)c1OC (centres unmarked) [Amoproxan] | > 50
CC(C)(C)NCCNC(C)(C)C [N,N'-Di-tert-butylethane-1,2-diamine] | > 90
O=Cc1cccc([N+](=O)[O-])c1 [3-Nitrobenzaldehyde] | > 90
Cc1c(N)cccc1N [2,6-Toluenediamine] | > 90
CCN(CC)CCOCCOC(=O)C(CC)(CC)c1ccccc1 [Oxeladin citrate] | 27.1
Brc1cc(-c2ccc(Br)c(Br)c2Br)cc(Br)c1Br [Polybrominated biphenyls (PBB)] | > 50
CCOC(=O)[C@H](CCc1ccccc1)N[C@@H](C)C(=O)N1[C@H](C(=O)O)C[C@H]2CCCC[C@@H]21 [Trandolapril] | > 50

SMILES | CC50 at 24 h [µM]
Cc1c(C)n(Cc2ccccc2)c2ccc(C(=O)OCCN(C)C)cc12 [Indocate] | 8.6
CCOC(=O)CC(O)(CC(=O)OCC)C(=O)OCC [Triethyl citrate] | > 90
CCCCCC(C)OC(=O)COc1ccc(Cl)c2cccnc12 (centres unmarked) [Cloquintocet-mexyl] | 71.4
O=C(C1CCCCC1)N1CC(=O)N2CCc3ccccc3C2C1 (centres unmarked) [Praziquantel] | > 90
COc1ccc2[nH]cc(CCNC(C)=O)c2c1 [Melatonin] | > 90
Cc1cc(NC(=O)C(=O)O)cc(C)c1Oc1ccc(O)c2c1CCC2 [CP-634384] | > 90
CCCCP(CCCC)CCCC [Tributylphosphine] | > 90
CC(=O)Oc1cc2c(s1)CCN(C(C(=O)C1CC1)c1ccccc1F)C2 (centres unmarked) [Prasugrel hydrochloride] | > 50
CNC(=O)OCc1cccc(COC(=O)NC)n1 [Pyricarbate] | > 50
O=C(O)CCC(=O)O [Butanedioic acid] | > 90
CCCCCCCCOC(C)=O [Octyl acetate] | > 90
C=CN1CCCC1=O [N-Vinyl-2-pyrrolidone] | > 90
C[C@@H]1CN([C@H]2CC[C@](C#N)(c3ccc(F)cc3)CC2)CC[C@]1(C(=O)O)c1ccccc1 [Levocabastine hydrochloride] | > 20
Nc1cc(Cl)c(O)c(Cl)c1 [4-Amino-2,6-dichlorophenol] | 83.2
COc1cc2ncnc(Nc3ccc(F)c(Cl)c3)c2cc1OCCCN1CCOCC1 [Gefitinib] | 8.92
N#CC(C#N)=NNc1cccc(Cl)c1 [Carbonyl cyanide chlorophenylhydrazone] | 1.97
Cc1ccc(S(=O)(=O)N[C@@H](CCCCN)C(=O)CCl)cc1 [N-alpha-p-Tosyl-L-lysine chloromethyl ketone hydrochloride] | 15
CC(C)OC(=O)c1ccccc1C(=O)OC(C)C [Diisopropyl phthalate] | > 90
CC(=O)Nc1cc(S(=O)(=O)O)cc2cc(S(=O)(=O)O)c(N=Nc3ccccc3)c(O)c12 [C.I. Acid Red 1] | 53.1
CC(O)CNCC(C)O (centres unmarked) [Diisopropanolamine] | > 90
O=C1CC[C@@H](C(=O)N2CSC[C@H]2C(=O)O)N1 [Pidotimod] ([pGlu]-[Thz]-OH) | > 50
COC(C)(OC)OC [1,1,1-Trimethoxyethane] | > 90
O=C(O)CCCc1c[nH]c2ccccc12 [Indole-3-butyric acid] | > 90

SMILES | CC50 at 24 h [µM]
N[C@@H]1CON=C1O [Cycloserine] | > 50
COc1ccc(N)c([N+](=O)[O-])c1 [4-Methoxy-2-nitroaniline] | > 90
CN(Cc1cc(Br)cc(Br)c1N)C1CCCCC1 [Bromhexine hydrochloride] | 42.9
O=C(O)c1cccc(N(Cc2cccnc2)c2ccc(OC(F)F)c(OC(F)F)c2)c1 [PharmaGSID_48510] | 75.3
COc1cc2c(cc1OC)[C@H]1CC(=O)[C@H](CC(C)C)CN1CC2 (racemic) [Tetrabenazine] | > 50
CO[C@@H]1[C@@H](OC)[C@H](C)[C@@](O)(CC(=O)O)O[C@H]1[C@H](C)[C@H]1O[C@@]2(CC[C@@](C)([C@H]3CC[C@@](C)([C@@H]4O[C@@H]([C@H]5O[C@](C)(O)[C@H](C)C[C@@H]5C)C[C@@H]4O[C@@H]4C[C@H](OC)[C@@H](OC)[C@H](C)O4)O3)O2)C[C@H](O)[C@H]1C [Maduramicin ammonium] | 0.49
Cc1ccccc1-n1c(C)nc2ccccc2c1=O [Methaqualone] | > 50
C=CC[C@@H]1/C=C(\C)C[C@H](C)C[C@H](OC)[C@H]2O[C@@](O)(C(=O)C(=O)N3CCCC[C@H]3C(=O)O[C@H](/C(C)=C/[C@@H]3CC[C@@H](O)[C@H](OC)C3)[C@H](C)[C@@H](O)CC1=O)[C@H](C)C[C@@H]2OC [Tacrolimus] | > 50
CC(=O)c1cnccn1 [Acetylpyrazine] | > 100
O=C(CCCCCCCCC#CI)Oc1ccccc1 [Phenyl 11-iodo-10-undecynoate] | > 50
C[C@]12CC[C@@H]3c4ccc(OC(=O)c5ccccc5)cc4CC[C@H]3[C@@H]1CC[C@@H]2O [Estradiol benzoate] | > 50
COc1ccc(-c2ccccc2)cc1NNC(=O)OC(C)C [Bifenazate] | 87.4
C=C(C)CS(=O)(=O)O [Sodium 2-methylprop-2-ene-1-sulfonate] | > 90
c1ccc(SSc2ccccc2)cc1 [Diphenyl disulfide] | > 90
CCCCNC(=N)NC(=N)N [Buformin] | > 50
Cc1ccc2ccccc2c1[N+](=O)[O-] [1-Nitro-2-methylnaphthalene] | > 90
CCC(C)c1cc([N+](=O)[O-])cc([N+](=O)[O-])c1OC(=O)OC(C)C (centres unmarked) [Dinobuton] | 42.5
N#CC(C#N)=Cc1cc(O)c(O)c(O)c1 [Tyrphostin 25] | 28.5
C=CC[N+](C)(C)CC=C [Diallyldimethylammonium chloride] | > 90
CN(C)C(=O)Nc1ccc(Oc2ccc(Cl)cc2)cc1 [Chloroxuron] | > 90
O=C(Cc1cccs1)N[C@@H]1C(=O)N2C(C(=O)[O-])=C(C[n+]3ccccc3)CS[C@H]12 [Cephaloridine] | > 50

same assay, conditions: rat, gh3-tre-luc cells, AC50 (uM) modified / 1000, Tox21_110001=Tox21_110399; viability, 1 nM T3 present, 24 h

SMILES | CC50 at 24 h [µM]
OC(c1ccccc1)(c1ccccc1)C1CCNCC1 [Azacyclonol] | > 20

same assay, conditions: rat, gh3-tre-luc cells, AC50 (uM) modified / 1000, Tox21_110001=Tox21_110485; viability, 1 nM T3 present, 24 h

SMILES | CC50 at 24 h [µM]
CC(=O)O[C@H]1CC[C@@]2(C)C(=CC[C@@H]3[C@@H]2CC[C@]2(C)C(=O)CC[C@@H]32)C1 [Dehydroepiandrosterone acetate] | > 20

same assay, conditions: rat, gh3-tre-luc cells, AC50 (uM) modified / 1000, Tox21_110001=Tox21_112871; viability, 1 nM T3 present, 24 h

SMILES | CC50 at 24 h [µM]
O=C(O)CCCO [Sodium 4-hydroxybutanoate] | > 100

same assay, conditions: rat, gh3-tre-luc cells, AC50 (uM) modified / 1000, Tox21_110001=Tox21_200963; viability, 1 nM T3 present, 24 h

SMILES | CC50 at 24 h [µM]
CC(=O)O[C@H]1CC[C@@]2(C)C(=CC[C@@H]3[C@@H]2CC[C@]2(C)C(=O)CC[C@@H]32)C1 [Dehydroepiandrosterone acetate] | > 90

same assay, conditions: rat, gh3-tre-luc cells, AC50 (uM) modified / 1000, Tox21_110001=Tox21_201114; viability, 1 nM T3 present, 24 h

SMILES | CC50 at 24 h [µM]
O=C(O)CCl [Chloroacetic acid] | > 90

same assay, conditions: rat, gh3-tre-luc cells, AC50 (uM) modified / 1000, Tox21_110001=Tox21_201319; viability, 1 nM T3 present, 24 h

SMILES | CC50 at 24 h [µM]
Cc1cc(Cl)ccc1OCCCC(=O)O [MCPB] | > 100

same assay, conditions: rat, gh3-tre-luc cells, AC50 (uM) modified / 1000, Tox21_110001=Tox21_201566; viability, 1 nM T3 present, 24 h

SMILES | CC50 at 24 h [µM]
COc1ccc(C=O)cc1OC [Veratraldehyde] | > 90

same assay, conditions: rat, gh3-tre-luc cells, AC50 (uM) modified / 1000, Tox21_110001=Tox21_202028; viability, 1 nM T3 present, 24 h

SMILES | CC50 at 24 h [µM]
CCOP(=S)(OCC)Oc1cnc2ccccc2n1 [Quinalphos] | > 90

same assay, conditions: rat, gh3-tre-luc cells, AC50 (uM) modified / 1000, Tox21_110001=Tox21_301105; viability, 1 nM T3 present, 24 h

SMILES | CC50 at 24 h [µM]
Nc1nc(N)nc(Cl)n1 [2-Chloro-4,6-diamino-1,3,5-triazine] | > 90

same assay, conditions: rat, gh3-tre-luc cells, AC50 (uM) modified / 1000, Tox21_110001=Tox21_303338; viability, 1 nM T3 present, 24 h

SMILES | CC50 at 24 h [µM]
Cc1cc(Cl)ccc1OCCCC(=O)O [MCPB] | > 90

From publication PMC6792352, “Limited Chemical Structural Diversity Found to Modulate Thyroid Hormone Receptor in the Tox21 Chemical Library” (Environmental Health Perspectives, 2019)
